In patent US9713613B2, “Methods and compositions for the treatment of cancer and related hyperproliferative disorders” (priority 2007, dated 2017):

Columns and labels:
MOLT-4 cells = assay: MOLT-4 cell growth, MTT assay; assay type: cell-based, human; details: 48 hours
Experimental: 10,000 MOLT-4 cells (FIGS. 35A-35C) and 20,000 RPM18226 cells (FIGS. 35D-35F) were seeded onto 96 well plate in RPMI 1640 medium containing 5% FBS or fat-free charcoal treated serum (FF-FBS) for 24 hours at 37 C. MOLT-4 and RPM18226 cells were treated for additional 48 hours with different concentrations of compound 19 (None control without DMSO, Vehicle with DMSO, 1, 2, 5, 10 and 20 μM in DMSO; RPM18226 cells also were treated with 3 μM in DMSO). At the end of 48 hours cells were subjected to MTT assay to determine viability. Values are depicted as means±SD; *P<0.05.
20,000 MOLT-4 cells (FIGS. 36A-36C) and 20,000 RPM18226 cells (FIGS. 36D-36F) cells were seeded onto 96 well plates in RPMI 1640 Medium containing 5% Fetal bovine serum (FBS) or 5% fat free charcoal treated serum (FF-FBS) for 24 hours at 37 C. Cells then were treated for additional 48 hours with different concentrations of compound 17 (None control without DMSO, Vehicle with DMSO, 1, 2, 3, 5, 10 and 20 μM in DMSO). At the end of the 48 hours treatment cells were subjected to MTT assay to determine viability. Values are depicted as means±SD (n=3); **P<0.001; ***P<0.0001.
MOLT-4 cells were grown at two different conditions under 5% fetal bovine serum (FBS) and under 5% FBS fat free serum (charcoal treated serum). 10,000 Cells were seeded a 96 well plate for 24 hours before starting the treatment with different concentrations of compound 19. Compound 19 dissolved in DMSO was added to cells for 48 hours before determining cell growth using MTT assay. […] Compound 19 inhibited cell growth about 75-80% at 10 and 20 μM under both growth conditions.
MOLT-4 cells were grown at two different conditions under 5% fetal bovine serum (FBS) and under 5% FBS fat free serum (charcoal treated serum). 20,000 cells were seeded into a 96 well plate for 24 hours before starting the treatment with different concentrations of compound 17. Compound 17 dissolved in DMSO was added to cells for 48 hours before determining cell growth using MTT assay. […] Compound 17 inhibited cell growth about 85-100% at 5, 10 and 20 μM under both growth conditions. Under both 5% FBS and 5% FBS fat free sera there was a strong trend of inhibition starting at 1 μM (FIGS. 36B-36C).

endogenous SREBPs [1] = assay: Luciferase reporter assay (pSRE-Luc, normalized by β-gal) in HEK293 cells; assay type: cell-based, human; set-up: Luc/Gal: dose or concentration left out as unconfirmed; details: entries 1-18 (FIG. 15); none = 9.4426
Experimental: On day 0, HEK293 cells were plated out in triplicate at a density of 5×10^3/well onto a 96-well plate in a Dulbecco's modified Eagle's medium with 10% fetal bovine serum, 100 units/mL penicillin, and 100 μg/mL streptomycin sulfate. On day 2, the cells were transiently co-transfected with the following plasmids by using Lipofectamine reagent (Invitrogen): 0.4 μg/well pSRE-Luc (an SRE-1-driven luciferase reporter construct; Hua et al., 1995 J Biol Chem 270, 29422-7), and 0.1 μg/well a b-gal reporter in which the expression of β-gal is controlled by an actin promoter in a final volume of […]. After incubation for 5 hrs at 37° C., the cells were washed with phosphate-buffered saline and then incubated in 100 μl of Dulbecco's modified Eagle's medium with 10% lipid-depleted serum, […] penicillin, and 100 μg/mL streptomycin sulfate in the absence or presence of fatostatin A. After 20 hrs of incubation, the cells in each well were lysed with 20 μL of 1× Reporter Lysis Buffer (Promega), and aliquots were used for measurement of luciferase (10 μL) and β-galactosidase (10 μL) activities. For luciferase assay, photon production was detected as counts per second in a Wallac 1420 ARVOsx multilabel counter (PerkinElmer). For β-galactosidase assays, hydrolysis of O-nitrophenyl-β-D-galactosidase was measured after incubation for 0.5 h at 37° C. by a microplate reader at the wave length of 405 nm (Tecan). The luciferase activity (counts per second) was normalized by the activity of β-galactosidase (OD units). For overexpression of the N-terminal matured form of SREBP-1c, pCMV-SREBP-1c (1-436) was co-transfected with pSRE-Luc. pSRE-Luc and pCMV-SREBP-1c (1-436) were provided by J. L. Goldstein (University of Texas Southwestern Medical Center). […]

3T3-L1 cells = assay: adipogenesis assay (formation of oil droplets); assay type: cell-based, mouse; set-up: key: +: The analogues that completely inhibited the formation of oil droplets in cells were scored to be adipogenesis-inhibiting analogues; details: formation of oil droplets in cells
Experimental: The adipogenesis assay was performed as described (Choi et al., 2003).

endogenous SREBPs [2] = assay: SREBP activation assay (pSRE-Luc luciferase reporter) in CHO-K1 cells; assay type: cell-based, Chinese hamster; details: Cricetulus griseus, CHO-K1; 5 μM in CHOK1 cells
Experimental: To confirm that fatostatin impairs the function of SREBPs, the ability of endogenous SREBPs to activate transcription of an SREBP-responsive reporter gene was measured in CHO-K1 cells in the presence or absence of fatostatin (FIG. 18A).
Luciferase reporter assay. On day 0, CHO-K1 cells were plated out onto a 96-well plate in medium A (a 1:1 mixture of Ham's F-12 medium and Dulbecco's modified Eagle's medium, with 5% fetal bovine serum, 100 units/mL penicillin, and 100 μg/mL streptomycin sulfate). On day 2, the cells were transiently co-transfected with pSRE-Luc (an SRE-1-driven luciferase reporter construct) (Hua et al., 1995) and pAc-β-gal (β-gal reporter in which the expression of β-gal is controlled by an actin promoter), using Lipofectamine reagent (Invitrogen). After incubation for 5 h, the cells were washed with phosphate-buffered saline (PBS), and then incubated, in the absence or presence of fatostatin, in medium B (a 1:1 mixture of Ham's F-12 medium and Dulbecco's modified Eagle's medium, with 5% lipid-depleted serum, 100 units/mL penicillin, 100 μg/mL streptomycin sulfate, […], and 50 mM sodium mevalonate). After 20 h of incubation, the cells in each well were lysed, and aliquots were used to measure luciferase and β-galactosidase activities. Luciferase activity was normalized by the activity of β-galactosidase. For overexpression of the N-terminal matured form of SREBP-1c, pCMV-SREBP-1c(1-436) was co-transfected with pSRE-Luc and pAc-β-gal.
Standard SREBP activation assays were performed on the exemplary compounds identified in Table 4 as per the method for Fatostatin A in Example 1. The ability of endogenous SREBPs to activate transcription of an SREBP-responsive reporter gene was measured in the presence or absence of compounds 45-55 and 19 (FIG. 28), compounds 56-61 and 19 (FIG. 29) and compounds 62-66 (FIG. 30) at 5 μM in CHOK1 cells. […] The inhibitory concentrations of compounds 53 (FIG. 31) and compounds 58 and 61 (FIG. 32) were determined.

CCCc1cc(-c2nc(-c3ccc(NC(C)C)cc3)cs2)ccn1 [Compound 17, N-isopropyl-4-(2-(2-propylpyridin-4-yl)thiazol-4-yl)benzenamine]
inhibition under 5% FF FBS relative to 5% FBS (MOLT-4 cells; 3 μM): about 2.5 times
inhibition of cell growth (MOLT-4 cells; 5, 10 and 20 μM, both growth conditions): 85-100%
Luc/Gal (endogenous SREBPs [1]): 4.7079
Inhibition of adipogenesis (3T3-L1 cells): +

CS(=O)(=O)Nc1ccc(-c2csc([C@H]3CCCN3C(=O)OCc3ccccc3)n2)cc1 [Compound 53, benzyl (R)-2-(4-(4-(methylsulfonamido)phenyl)thiazol-2-yl)pyrrolidine-1-carboxylate]
inhibition at 5 µM (endogenous SREBPs [2]): ~30%

Cc1ccc(S(=O)(=O)Nc2ccc(C(=O)N3CCN(c4cc(Cl)ccc4C)CC3)cc2)cc1 [Compound 58, (4-(5-chloro-2-methylphenyl)piperazin-1-yl)(4-(tosylamino)phenyl)methanone]
inhibition at 5 µM (endogenous SREBPs [2]): ~42%

Cc1ccc(-c2csc(/C(C#N)=C\Cc3ccc(S(=O)(=O)Nc4nccs4)cc3)n2)c(C)c1 [Compound 61, (Z)-4-(3-cyano-3-(4-(2,4-dimethylphenyl)thiazol-2-yl)allyl)-N-(thiazol-2-yl)benzenesulfonamide]
inhibition at 5 µM (endogenous SREBPs [2]): ~25%
